Data as given in ChEMBL document CHEMBL1201862, “PubChem BioAssay data set” (2004).
Each block holds one molecule with its values, some of them ahead of it. Calls of active or inactive are those of the source.

Tests used:
Aspartyl aminopeptidase = molecular target: T1, Aspartyl aminopeptidase (Plasmodium falciparum 3D7, UniProt Q8I2J3); assay: Counterscreen for inhibitors of M1 and M17 aminopeptidases: QFRET-based biochemical high throughput dose response assay for inhibitors of the Plasmodium falciparum M18 Aspartyl Aminopeptidase (PFM18AAP). [Related PubChem assays: 1619 (Screening assay (M17LAP inhibitors).), 1445 (Screening assay (M1AAP inhibitors).)]
T1 sequence (Q8I2J3 whole entry): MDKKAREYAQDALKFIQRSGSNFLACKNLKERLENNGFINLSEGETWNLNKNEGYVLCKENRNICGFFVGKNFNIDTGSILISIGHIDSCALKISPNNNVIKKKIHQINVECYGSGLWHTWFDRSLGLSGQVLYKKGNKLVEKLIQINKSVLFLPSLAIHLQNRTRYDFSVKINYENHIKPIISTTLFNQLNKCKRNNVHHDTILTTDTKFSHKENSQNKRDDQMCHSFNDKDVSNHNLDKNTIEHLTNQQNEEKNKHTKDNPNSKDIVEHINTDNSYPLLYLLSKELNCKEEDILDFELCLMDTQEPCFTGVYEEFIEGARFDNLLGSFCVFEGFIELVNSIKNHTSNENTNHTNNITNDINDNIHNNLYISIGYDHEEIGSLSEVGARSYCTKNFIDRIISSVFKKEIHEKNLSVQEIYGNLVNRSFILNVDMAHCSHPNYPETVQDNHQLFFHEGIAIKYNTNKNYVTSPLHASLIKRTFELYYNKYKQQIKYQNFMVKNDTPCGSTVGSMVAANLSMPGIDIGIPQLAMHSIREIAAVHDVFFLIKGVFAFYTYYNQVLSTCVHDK

Procathepsin L = Procathepsin L (Homo sapiens, UniProt P07711); assay: CTSL1 protease inhibition – biochemical, QFRET, 1536-well, counter-screen for M1/M17 aminopeptidase inhibitor project, dose response (AID 2214)
Leucine aminopeptidase = molecular target: T2, Leucine aminopeptidase (Plasmodium falciparum 3D7, UniProt Q8IL11); assay: P. falciparum M17LAP inhibitors, primary screen, biochemical, fluorogenic H-Leu-NHMec substrate, 1536-well (AID 1619); format: functional
T2 sequence (Q8IL11 whole entry): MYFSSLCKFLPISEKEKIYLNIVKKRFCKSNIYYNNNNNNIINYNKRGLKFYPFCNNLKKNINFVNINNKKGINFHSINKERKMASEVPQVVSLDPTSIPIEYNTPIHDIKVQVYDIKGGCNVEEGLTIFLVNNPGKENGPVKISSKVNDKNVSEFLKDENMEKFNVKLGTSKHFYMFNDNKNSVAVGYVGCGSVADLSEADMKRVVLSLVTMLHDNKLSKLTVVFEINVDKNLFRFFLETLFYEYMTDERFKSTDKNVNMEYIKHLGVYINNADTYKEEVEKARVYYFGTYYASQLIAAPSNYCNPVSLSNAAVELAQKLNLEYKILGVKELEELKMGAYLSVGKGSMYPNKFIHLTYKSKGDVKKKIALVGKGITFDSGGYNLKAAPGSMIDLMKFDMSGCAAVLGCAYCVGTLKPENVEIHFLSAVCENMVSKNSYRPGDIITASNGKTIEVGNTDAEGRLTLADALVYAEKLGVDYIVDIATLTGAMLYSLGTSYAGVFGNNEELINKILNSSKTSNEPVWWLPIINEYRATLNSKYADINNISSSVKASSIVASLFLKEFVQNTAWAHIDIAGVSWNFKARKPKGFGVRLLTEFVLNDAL

Cytochrome P450 3A4 = Cytochrome P450 3A4 (Homo sapiens, UniProt P08684);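 further: CYP3A4 tested as one member of a cytochrome P450 panel screen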
Cytochrome P450 2C19 = Cytochrome P450 2C19 (Homo sapiens, UniProt P33261); assay: Cytochrome panel assay with activity outcomes. Panel member name: p450-cyp2c19 Compounds with AC50 equal or less than 10 uM are considered active; format: functional; details: read-out: AC50
[1] = molecular target: T3, Serine/threonine-protein phosphatase (Homo sapiens, UniProt Q9BPW0); assay: inhibition of protein phosphatase 5 activity – biochemical, fluorescence, dose response (AID 2395)
T3 sequence (Q9BPW0 whole entry): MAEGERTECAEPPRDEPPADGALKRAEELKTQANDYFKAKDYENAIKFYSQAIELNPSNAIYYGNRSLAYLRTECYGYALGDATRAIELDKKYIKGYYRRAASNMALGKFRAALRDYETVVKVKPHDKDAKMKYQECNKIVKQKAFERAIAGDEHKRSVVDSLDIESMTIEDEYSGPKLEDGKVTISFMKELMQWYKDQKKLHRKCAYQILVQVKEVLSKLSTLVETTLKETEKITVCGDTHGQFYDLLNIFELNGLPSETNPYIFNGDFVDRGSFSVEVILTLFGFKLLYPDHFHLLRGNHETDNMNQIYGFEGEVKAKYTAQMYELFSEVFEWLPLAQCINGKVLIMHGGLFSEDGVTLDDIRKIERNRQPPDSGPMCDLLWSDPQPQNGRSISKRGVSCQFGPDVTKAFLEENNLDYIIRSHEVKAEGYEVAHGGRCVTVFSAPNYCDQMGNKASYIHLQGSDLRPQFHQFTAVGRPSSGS

[2] = molecular target: Serine/threonine-protein phosphatase PP1-alpha catalytic subunit (Homo sapiens, UniProt P62136); assay: inhibition of protein phosphatase 1 activity – biochemical, fluorescence, dose response (AID 2394)
[3] = molecular target: T4, Apoptotic protease-activating factor 1 (Homo sapiens, UniProt O14727); format: functional
T4 sequence (O14727 whole entry): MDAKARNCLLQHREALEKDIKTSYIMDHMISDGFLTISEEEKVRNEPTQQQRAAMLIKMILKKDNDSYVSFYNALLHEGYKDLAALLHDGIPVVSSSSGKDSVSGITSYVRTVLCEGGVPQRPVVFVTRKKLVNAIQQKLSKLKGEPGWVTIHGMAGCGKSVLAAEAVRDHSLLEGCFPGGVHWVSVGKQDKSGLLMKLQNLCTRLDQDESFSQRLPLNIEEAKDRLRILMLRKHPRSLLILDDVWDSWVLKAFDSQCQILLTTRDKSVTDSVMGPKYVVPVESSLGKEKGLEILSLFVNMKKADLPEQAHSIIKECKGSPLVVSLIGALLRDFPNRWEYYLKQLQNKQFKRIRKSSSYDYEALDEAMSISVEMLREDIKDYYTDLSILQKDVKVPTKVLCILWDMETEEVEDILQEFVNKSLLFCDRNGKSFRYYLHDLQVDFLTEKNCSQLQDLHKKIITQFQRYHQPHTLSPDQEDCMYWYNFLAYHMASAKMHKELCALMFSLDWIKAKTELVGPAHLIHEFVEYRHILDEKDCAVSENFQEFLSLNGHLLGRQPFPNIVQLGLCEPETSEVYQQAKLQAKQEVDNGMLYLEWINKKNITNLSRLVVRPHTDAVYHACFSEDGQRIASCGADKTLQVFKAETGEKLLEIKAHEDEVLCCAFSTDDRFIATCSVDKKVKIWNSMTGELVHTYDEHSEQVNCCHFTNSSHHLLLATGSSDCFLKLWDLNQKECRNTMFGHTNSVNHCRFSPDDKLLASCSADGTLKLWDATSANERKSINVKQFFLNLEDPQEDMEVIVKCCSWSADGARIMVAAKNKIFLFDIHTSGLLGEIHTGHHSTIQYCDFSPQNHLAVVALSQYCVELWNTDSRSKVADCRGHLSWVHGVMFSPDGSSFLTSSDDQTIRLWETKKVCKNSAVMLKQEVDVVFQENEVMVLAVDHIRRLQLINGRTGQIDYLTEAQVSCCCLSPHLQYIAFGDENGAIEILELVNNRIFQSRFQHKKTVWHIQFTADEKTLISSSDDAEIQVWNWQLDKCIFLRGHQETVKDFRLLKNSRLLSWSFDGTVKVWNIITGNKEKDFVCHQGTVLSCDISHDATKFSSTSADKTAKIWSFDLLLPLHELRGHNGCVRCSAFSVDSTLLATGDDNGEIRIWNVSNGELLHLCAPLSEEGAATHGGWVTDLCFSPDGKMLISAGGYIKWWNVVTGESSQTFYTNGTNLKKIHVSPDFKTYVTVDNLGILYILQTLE

[4] = molecular target: T5, Histone-lysine N-methyltransferase NSD2 (Homo sapiens, UniProt O96028); format: biochemical
T5 sequence (O96028 whole entry): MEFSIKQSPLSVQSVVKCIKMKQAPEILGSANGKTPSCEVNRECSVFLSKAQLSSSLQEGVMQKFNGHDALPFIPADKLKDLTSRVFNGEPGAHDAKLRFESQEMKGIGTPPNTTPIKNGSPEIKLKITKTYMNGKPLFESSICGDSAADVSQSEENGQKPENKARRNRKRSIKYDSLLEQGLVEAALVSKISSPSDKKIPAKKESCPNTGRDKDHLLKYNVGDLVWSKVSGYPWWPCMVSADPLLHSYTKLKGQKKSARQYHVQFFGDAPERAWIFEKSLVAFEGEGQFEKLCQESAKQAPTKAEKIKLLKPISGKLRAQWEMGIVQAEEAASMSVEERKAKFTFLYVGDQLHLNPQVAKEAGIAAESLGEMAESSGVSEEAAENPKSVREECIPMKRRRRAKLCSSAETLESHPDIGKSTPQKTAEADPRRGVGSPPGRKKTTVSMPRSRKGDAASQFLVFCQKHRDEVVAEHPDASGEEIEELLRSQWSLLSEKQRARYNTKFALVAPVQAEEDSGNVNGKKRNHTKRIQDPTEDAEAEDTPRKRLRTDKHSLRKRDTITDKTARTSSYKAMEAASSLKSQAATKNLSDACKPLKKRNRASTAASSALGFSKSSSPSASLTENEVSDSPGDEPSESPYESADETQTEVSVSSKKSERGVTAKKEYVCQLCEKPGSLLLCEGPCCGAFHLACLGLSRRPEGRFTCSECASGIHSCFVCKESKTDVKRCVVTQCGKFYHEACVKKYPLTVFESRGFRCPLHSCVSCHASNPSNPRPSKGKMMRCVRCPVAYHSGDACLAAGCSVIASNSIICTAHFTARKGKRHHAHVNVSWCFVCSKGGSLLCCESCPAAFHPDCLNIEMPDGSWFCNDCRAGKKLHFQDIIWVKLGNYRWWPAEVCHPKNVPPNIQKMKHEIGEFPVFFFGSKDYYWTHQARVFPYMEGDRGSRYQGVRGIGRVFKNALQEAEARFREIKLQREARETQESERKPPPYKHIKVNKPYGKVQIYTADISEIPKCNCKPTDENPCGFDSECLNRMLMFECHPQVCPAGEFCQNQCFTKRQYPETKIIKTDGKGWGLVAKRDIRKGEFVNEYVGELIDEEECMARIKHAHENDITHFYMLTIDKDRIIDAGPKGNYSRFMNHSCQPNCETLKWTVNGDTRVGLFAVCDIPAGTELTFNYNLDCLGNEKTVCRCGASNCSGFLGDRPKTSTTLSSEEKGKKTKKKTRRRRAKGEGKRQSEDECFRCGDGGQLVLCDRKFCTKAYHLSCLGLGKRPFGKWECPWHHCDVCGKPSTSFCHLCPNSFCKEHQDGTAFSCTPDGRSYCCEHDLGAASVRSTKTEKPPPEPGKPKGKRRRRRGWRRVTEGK

[5] = molecular target: Ras and Rab interactor 1/Tyrosine-protein kinase ABL1 (Homo sapiens, UniProt P00519+Q13671); format: functional;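 further: biochemical TR-FRET dose-response test measuring inhibition of binding between Rin1 and Abl proteins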
[6] = molecular target: T6, Tyrosyl-DNA phosphodiesterase 2 (Homo sapiens, UniProt O95551); assay: potency against TDP2 phosphodiesterase activity – biochemical, epi absorbance, IC50, dose response (AID 743297)
T6 sequence (O95551 whole entry): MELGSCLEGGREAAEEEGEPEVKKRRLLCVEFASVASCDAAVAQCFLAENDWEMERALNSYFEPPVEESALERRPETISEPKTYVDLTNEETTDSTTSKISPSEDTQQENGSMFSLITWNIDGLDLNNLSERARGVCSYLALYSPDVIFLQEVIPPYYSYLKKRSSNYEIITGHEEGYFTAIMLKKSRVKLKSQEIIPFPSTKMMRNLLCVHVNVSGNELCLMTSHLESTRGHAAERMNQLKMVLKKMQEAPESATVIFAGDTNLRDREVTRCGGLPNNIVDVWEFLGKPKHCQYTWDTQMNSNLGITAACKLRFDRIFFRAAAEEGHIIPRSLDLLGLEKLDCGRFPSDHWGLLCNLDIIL

[7] = Late stage counterscreen results from the probe development effort to identify activators of signal transducer and activator of transcription 1 (STAT1): luminescence-based cell-based dose response assay to identify cytotoxic compounds.; format: functional
Fatty acid synthase [8] = molecular target: T7, Fatty acid synthase (Homo sapiens, UniProt P49327); assay: inhibition of human FAS-TE enzyme activity – biochemical, kinetic fluorescence intensity, dose response (AID 624326); format: functional;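 further: rate of fluorescence rise from hydrolysis of a fluorogenic O-methyl fluorescein ester substrate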
Fatty acid synthase [9] = molecular target: T7, Fatty acid synthase; assay: inhibition of human FAS-TE enzyme activity – biochemical, endpoint fluorescence intensity, uHTS hits, dose response (AID 624327); format: functional;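 further: fluorescence from hydrolysis of an O-methyl fluorescein acyl ester substrate by the enzyme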

Sequence of Procathepsin L (P07711 whole entry): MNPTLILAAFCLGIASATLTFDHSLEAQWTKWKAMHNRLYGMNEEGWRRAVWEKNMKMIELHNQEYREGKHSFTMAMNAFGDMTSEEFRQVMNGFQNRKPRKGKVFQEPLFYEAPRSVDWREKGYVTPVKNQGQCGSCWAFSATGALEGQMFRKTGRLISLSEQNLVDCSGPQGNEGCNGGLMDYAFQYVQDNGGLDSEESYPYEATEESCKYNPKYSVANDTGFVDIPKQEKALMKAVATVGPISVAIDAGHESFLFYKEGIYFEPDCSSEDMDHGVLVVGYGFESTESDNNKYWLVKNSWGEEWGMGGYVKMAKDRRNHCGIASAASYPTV
T7 sequence (P49327 whole entry): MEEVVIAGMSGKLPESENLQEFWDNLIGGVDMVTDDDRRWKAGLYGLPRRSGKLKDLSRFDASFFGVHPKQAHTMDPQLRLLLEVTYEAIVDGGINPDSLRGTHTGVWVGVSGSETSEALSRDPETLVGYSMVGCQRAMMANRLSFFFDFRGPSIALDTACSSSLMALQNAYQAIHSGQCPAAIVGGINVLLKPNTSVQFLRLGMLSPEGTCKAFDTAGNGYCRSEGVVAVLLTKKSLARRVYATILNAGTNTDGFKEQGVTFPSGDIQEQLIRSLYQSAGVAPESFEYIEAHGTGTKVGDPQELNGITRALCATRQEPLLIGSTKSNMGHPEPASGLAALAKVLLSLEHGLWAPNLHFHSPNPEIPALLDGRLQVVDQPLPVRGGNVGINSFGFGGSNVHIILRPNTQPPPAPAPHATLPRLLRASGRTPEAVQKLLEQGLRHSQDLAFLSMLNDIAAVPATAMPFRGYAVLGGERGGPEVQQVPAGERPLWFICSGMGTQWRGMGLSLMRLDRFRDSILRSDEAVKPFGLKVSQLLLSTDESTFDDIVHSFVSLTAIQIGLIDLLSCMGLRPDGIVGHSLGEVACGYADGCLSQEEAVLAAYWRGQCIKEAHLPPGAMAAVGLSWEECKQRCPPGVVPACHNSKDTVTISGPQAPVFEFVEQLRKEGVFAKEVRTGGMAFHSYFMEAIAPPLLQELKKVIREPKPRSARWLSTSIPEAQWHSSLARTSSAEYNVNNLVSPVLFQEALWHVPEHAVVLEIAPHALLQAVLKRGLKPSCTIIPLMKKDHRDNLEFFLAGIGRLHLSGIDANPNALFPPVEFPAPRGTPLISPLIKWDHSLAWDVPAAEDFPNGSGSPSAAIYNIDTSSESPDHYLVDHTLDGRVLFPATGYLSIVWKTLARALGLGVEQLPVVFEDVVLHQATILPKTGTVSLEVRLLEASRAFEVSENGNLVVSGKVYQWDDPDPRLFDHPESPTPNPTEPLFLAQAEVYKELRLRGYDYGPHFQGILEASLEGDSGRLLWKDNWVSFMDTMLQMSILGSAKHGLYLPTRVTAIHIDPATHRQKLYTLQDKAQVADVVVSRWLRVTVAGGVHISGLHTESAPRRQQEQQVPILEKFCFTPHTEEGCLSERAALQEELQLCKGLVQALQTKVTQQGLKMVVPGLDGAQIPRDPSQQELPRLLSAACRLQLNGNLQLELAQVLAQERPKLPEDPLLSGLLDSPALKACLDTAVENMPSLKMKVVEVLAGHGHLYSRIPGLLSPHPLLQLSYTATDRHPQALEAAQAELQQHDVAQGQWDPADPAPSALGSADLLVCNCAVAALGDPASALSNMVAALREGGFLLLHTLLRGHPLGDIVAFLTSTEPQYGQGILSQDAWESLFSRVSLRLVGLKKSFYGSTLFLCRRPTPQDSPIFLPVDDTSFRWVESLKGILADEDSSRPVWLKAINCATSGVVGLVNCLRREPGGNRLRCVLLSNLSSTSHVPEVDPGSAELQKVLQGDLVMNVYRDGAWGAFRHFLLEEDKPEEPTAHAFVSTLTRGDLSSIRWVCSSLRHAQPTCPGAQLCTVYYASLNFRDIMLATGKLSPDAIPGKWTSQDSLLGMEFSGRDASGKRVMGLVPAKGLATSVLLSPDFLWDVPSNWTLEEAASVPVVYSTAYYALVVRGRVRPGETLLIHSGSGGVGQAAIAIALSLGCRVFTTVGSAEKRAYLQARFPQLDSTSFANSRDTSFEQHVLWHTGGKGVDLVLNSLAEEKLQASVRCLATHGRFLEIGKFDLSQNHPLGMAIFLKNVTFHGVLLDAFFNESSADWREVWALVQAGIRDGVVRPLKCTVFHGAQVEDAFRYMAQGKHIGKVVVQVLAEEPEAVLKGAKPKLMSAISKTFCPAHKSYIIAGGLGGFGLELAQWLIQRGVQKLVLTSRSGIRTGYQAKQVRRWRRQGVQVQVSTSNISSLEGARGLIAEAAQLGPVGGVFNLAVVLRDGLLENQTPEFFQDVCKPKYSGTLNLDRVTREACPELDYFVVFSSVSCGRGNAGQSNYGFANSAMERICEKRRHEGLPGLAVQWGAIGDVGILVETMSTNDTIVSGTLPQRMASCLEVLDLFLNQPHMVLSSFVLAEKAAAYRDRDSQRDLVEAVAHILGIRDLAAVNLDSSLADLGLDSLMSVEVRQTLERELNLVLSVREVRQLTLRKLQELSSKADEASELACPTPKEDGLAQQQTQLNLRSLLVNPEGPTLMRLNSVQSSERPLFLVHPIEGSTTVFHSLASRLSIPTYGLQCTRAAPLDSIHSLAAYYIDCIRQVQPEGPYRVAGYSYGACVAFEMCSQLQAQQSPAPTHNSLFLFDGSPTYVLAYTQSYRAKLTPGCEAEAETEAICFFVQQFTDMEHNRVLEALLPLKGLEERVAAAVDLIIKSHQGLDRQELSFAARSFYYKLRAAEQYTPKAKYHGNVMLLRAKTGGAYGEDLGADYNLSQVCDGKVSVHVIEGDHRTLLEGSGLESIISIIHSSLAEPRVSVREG
Sequence of Cytochrome P450 2C19 (P33261 whole entry): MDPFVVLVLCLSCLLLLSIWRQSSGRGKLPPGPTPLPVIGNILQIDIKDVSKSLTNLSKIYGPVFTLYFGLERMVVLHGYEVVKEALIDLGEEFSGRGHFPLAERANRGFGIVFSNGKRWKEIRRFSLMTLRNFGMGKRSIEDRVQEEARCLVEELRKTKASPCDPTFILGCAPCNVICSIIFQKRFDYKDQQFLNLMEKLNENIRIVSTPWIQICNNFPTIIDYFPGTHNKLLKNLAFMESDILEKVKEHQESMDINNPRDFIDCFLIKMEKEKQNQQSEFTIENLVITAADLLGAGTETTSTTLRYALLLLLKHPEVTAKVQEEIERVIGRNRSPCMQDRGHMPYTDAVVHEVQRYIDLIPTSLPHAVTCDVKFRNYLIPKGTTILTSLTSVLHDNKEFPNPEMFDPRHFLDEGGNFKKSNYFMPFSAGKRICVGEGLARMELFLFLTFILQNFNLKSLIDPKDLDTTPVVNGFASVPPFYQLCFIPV
Sequence of Cytochrome P450 3A4 (P08684 whole entry): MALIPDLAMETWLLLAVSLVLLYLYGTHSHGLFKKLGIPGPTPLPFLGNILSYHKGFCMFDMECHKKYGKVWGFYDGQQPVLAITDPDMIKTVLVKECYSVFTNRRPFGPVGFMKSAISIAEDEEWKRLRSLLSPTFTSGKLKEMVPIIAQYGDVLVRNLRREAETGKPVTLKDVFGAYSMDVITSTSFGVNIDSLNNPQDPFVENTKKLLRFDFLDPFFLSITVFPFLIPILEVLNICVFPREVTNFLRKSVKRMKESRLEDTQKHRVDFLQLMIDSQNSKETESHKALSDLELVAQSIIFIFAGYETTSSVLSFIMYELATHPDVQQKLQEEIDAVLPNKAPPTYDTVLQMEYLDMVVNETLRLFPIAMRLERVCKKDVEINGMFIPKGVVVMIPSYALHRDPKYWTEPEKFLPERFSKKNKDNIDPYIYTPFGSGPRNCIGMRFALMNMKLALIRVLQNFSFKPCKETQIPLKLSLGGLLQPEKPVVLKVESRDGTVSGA
Sequence of Serine/threonine-protein phosphatase PP1-alpha catalytic subunit (P62136 whole entry): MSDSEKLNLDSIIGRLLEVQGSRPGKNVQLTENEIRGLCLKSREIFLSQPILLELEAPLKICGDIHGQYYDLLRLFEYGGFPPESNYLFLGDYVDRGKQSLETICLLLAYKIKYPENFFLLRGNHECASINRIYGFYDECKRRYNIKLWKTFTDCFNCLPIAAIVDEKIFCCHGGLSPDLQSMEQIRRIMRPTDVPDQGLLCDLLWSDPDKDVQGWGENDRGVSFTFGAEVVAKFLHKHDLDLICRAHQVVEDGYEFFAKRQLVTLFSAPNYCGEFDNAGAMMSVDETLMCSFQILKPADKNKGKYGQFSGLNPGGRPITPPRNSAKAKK

IC50 (Aspartyl aminopeptidase): > 73.5 µM (not active) | IC50 (Procathepsin L): > 59.6 µM (not active) | IC50 (Leucine aminopeptidase): 1.7 µM (active)
Structure (SMILES): O=C(O)Cc1ccc(NC(=O)Nc2cccc(Cl)c2)cc1

Structure (SMILES): Cc1ccc(-c2c(C)sc(NC(=O)C3C4CCC(O4)C3C(=O)O)c2C(=O)OC(C)C)cc1 (configuration not stated)
AC50 (Cytochrome P450 3A4): 14.1 µM (inconclusive) | AC50 (Cytochrome P450 2C19): 28.2 µM (inconclusive) | IC50 (Aspartyl aminopeptidase): > 73.5 µM (not active) | IC50 (Procathepsin L): > 59.6 µM (not active) | IC50 (Leucine aminopeptidase): 7.67 µM (active)

IC50 [1]: > 22.3 µM (not active) | IC50 [2]: > 67 µM (not active) | IC50 [3]: 9.72 µM (active) | AC50 [4]: 5.35 µM (active) | IC50 [5]: > 73.5 µM (inactive) | IC50 [6]: 9.1 µM (active)
Structure (SMILES): CC(=O)C(C(C)=O)C1(O)C(=O)c2ccccc2C1=O

Structure (SMILES): CC(=O)NC(=S)Nc1sc2c(c1C#N)CCCCC2
IC50 [7]: > 55.7 µM (not active) | IC50 (Fatty acid synthase [8]): 13.6 µM (active) | IC50 (Fatty acid synthase [9]): 12.3 µM (active)
